Experimental data published in patent US9073821B2, “Hydroxamic acid derivative” (priority 2010, dated 2015).
≈ marks a conversion by molar mass, not a printed value. Where two headings read alike, the source gives them in different places.

Assays:
E. coli LpxC enzyme = E. coli LpxC enzyme (Escherichia coli (strain K12), UniProt P0A725); test: Inhibitory activity on E. coli LpxC enzyme (fluorescamine assay); type: biochemical; details: Table 4
Experimental: Test 2: Evaluation of the Inhibitory Activity on E. coli LpxC Enzyme
An inhibition curve was constructed for each test compound by performing the aforementioned reaction at varying concentrations of the test compound. From this inhibition curve, the concentration of the test compound at which the formation of the reaction product was suppressed by 50% was determined as the IC50 of the test compound, which was an index for the inhibitory activity on E. coli LpxC enzyme.

[1] = test system: Klebsiella pneumoniae strain ATCC13883; test: Antimicrobial activity, MIC by broth microdilution; type: cell-based; details: Table 4, 35° C., 18 hours, read-out: Klebsiella pneumoniae ATCC 13883 strain MIC
Description: (§1) Test 3: Evaluation of Antimicrobial Activity For minimum inhibitory concentration (MIC) measurement, the following broth microdilution method was applied as adapted from the standard procedure recommended by the CLSI (Clinical and Laboratory Standards Institute). The bacteria used were Pseudomonas aeruginosa strain TS88 (clinical isolate), E. coli strain ATCC25922, and Klebsiella pneumoniae strain ATCC13883. After culture overnight on a heart infusion agar medium, the cells of a test bacterium were scraped off and suspended to give a turbidity of level 0.5 on the McFarland scale; the suspension was then diluted 10 fold to prepare an inoculum solution. A 0.005 mL aliquot of the inoculum solution was inoculated in a cation-adjusted Mueller-Hinton broth medium containing a test compound and cultured at 35° C. for 18 hours. A minimum drug concentration at which no cell growth was visible to the naked eye was designated as MIC.

E. coli strain ATCC25922 = test: Antimicrobial activity, MIC by broth microdilution; type: cell-based; details: Escherichia coli, Table 4, 35° C., 18 hours, read-out: E. coli ATCC 25922 strain MIC
Description: as §1

[2] = test system: Pseudomonas aeruginosa strain TS88 (clinical isolate); test: Antimicrobial activity, MIC by broth microdilution; type: cell-based; details: Table 4, 35° C., 18 hours, read-out: Pseudomonas aeruginosa TS88 strain MIC
Description: as §1

[3] = molecular target: Pseudomonas aeruginosa LpxC enzyme (Pseudomonas aeruginosa (strain ATCC 15692 / DSM 22644 / CIP 104116 / JCM 14847 / LMG 12228 / 1C / PRS 101 / PAO1), UniProt P47205); test: biochemical; type: biochemical
[4] = Table 4, read-out: Pseudomonas aeruginosa LpxC IC50
[5] = class symbols A/B/C by IC50, Table 3, read-out: Enzyme inhibitory activity (inhibitory activity on Pseudomonas aeruginosa LpxC enzyme)
[6] = inhibitory activity on Pseudomonas aeruginosa LpxC enzyme, class symbols A/B/C, read-out: Enzyme inhibitory activity

E. coli LpxC enzyme, sequence (P0A725 whole entry): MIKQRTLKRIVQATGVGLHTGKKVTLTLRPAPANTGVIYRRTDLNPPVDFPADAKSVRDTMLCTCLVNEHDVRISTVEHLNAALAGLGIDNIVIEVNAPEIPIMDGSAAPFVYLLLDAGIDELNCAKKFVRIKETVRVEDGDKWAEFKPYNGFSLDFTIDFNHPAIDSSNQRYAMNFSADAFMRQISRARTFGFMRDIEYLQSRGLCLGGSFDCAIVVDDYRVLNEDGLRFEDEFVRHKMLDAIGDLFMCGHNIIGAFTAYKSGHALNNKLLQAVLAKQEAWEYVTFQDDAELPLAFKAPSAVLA

Row | Compound | IC50 (E. coli LpxC enzyme) [nM] | MIC [1] [µg/mL] | MIC (E. coli strain ATCC25922) [µg/mL] | MIC [2] [µg/mL] | IC50 [3, 4] [nM] | IC50 [3, 5] [nM] | IC50 [3, 6] [nM] | IC50 [3] [nM]
1 | CNC(=O)[C@@](C)(C(=O)NO)N(C)C(=O)c1ccc(C#Cc2coc(CNC3CC3)c2)cc1 [Compound 585, (2S)-2-[{[4-({5-[(cyclopropylamino)methyl]furan-3-yl}ethynyl)phenyl]carbonyl}(methyl)amino]-N-hydroxy-N′,2-dimethylpropanediamide] | 88 | 1 (≈ 2.28 µM) | 0.5 (≈ 1.14 µM) | 0.5 (≈ 1.14 µM) | 3.4 | < 10 | – | –
2 | CCOc1ccc(-c2ccc(C(=O)N(C)C(C(=O)NC)C(=O)NO)cc2)cc1 (centres unmarked) [Compound 211, 2-{[(4′-ethoxybiphenyl-4-yl)carbonyl](methyl)amino}-N-hydroxy-N′-methylpropanediamide] | 109 | 8 (≈ 20.8 µM) | 1 (≈ 2.59 µM) | 0.5 (≈ 1.3 µM) | 3.1 | – | < 10 | –
3 | CNC(=O)[C@@](C)(C(=O)NO)N(C)C(=O)c1ccc(C#Cc2ccc(CN3CCOCC3)cc2)cc1 [Compound 561, (2S)-N-hydroxy-N′,2-dimethyl-2-{methyl[(4-{[4-(morpholin-4-ylmethyl)phenyl]ethynyl}phenyl)carbonyl]amino}propanediamide] | 30 | 0.5 (≈ 1.04 µM) | 0.125 (≈ 0.261 µM) | 0.5 (≈ 1.04 µM) | – | – | – | –
4 | CNC(=O)C(C(=O)NO)N(C)C(=O)c1ccc(C#C/C=C/c2ccc(CNC3CC3)cc2)cc1 (centres unmarked) [Compound 481, 2-[({4-[(3E)-4-{4-[(cyclopropylamino)methyl]phenyl}but-3-en-1-yn-1-yl]phenyl}carbonyl)(methyl)amino]-N-hydroxy-N′-methylpropanediamide] | 78 | 2 (≈ 4.34 µM) | 0.25 (≈ 0.543 µM) | 1 (≈ 2.17 µM) | 9.1 | – | < 10 | –
5 | CNC(=O)[C@@](C)(C(=O)NO)N(C)C(=O)c1ccc(/C=C/c2ccc(CN3CCOCC3)cc2)cc1 [Compound 434, (2S)-N-hydroxy-N′,2-dimethyl-2-{methyl[(4-{(E)-2-[4-(morpholin-4-ylmethyl)phenyl]ethenyl}phenyl)carbonyl]amino}propanediamide] | 55 | 1 (≈ 2.08 µM) | 0.25 (≈ 0.52 µM) | 1 (≈ 2.08 µM) | 2.8 | – | < 10 | –
6 | CCOc1ccc(-c2ccc(C(=O)N(C)[C@@](C)(C(=O)NC)C(=O)NO)cc2)cc1 [Compound 399, (2S)-2-{[(4′-ethoxybiphenyl-4-yl)carbonyl](methyl)amino}-N-hydroxy-N′,2-dimethylpropanediamide] | 13 | 0.5 (≈ 1.25 µM) | 0.125 (≈ 0.313 µM) | 0.5 (≈ 1.25 µM) | – | – | – | –
7 | CNC(=O)[C@@](C)(C(=O)NO)N(C)C(=O)c1ccc(C#Cc2ccc(CNCCF)cc2)cc1 [Compound 554, (2S)-2-[({4-[(4-{[(2-fluoroethyl)amino]methyl}phenyl)ethynyl]phenyl}carbonyl)(methyl)amino]-N-hydroxy-N′,2-dimethylpropanediamide] | 120 | 1 (≈ 2.2 µM) | 0.5 (≈ 1.1 µM) | 0.5 (≈ 1.1 µM) | – | – | – | –
8 | CNC(=O)[C@@](C)(C(=O)NO)N(C)C(=O)c1ccc(C#Cc2ccc(CN3CC(OC)C3)cc2)cc1 [Compound 567, (2S)-N-hydroxy-2-[{[4-({4-[(3-methoxyazetidin-1-yl)methyl]phenyl}ethynyl)phenyl]carbonyl}(methyl)amino]-N′,2-dimethylpropanediamide] | 177 | 2 (≈ 4.18 µM) | 0.5 (≈ 1.04 µM) | 1 (≈ 2.09 µM) | – | – | – | –
9 | CNC(=O)C(C(=O)NO)N(C)C(=O)c1ccc(C#Cc2ccc(CN3CCCOCC3)cc2)cc1 (centres unmarked) [Compound 168, N-hydroxy-N′-methyl-2-[methyl(4-{[4-(1,4-oxazepan-4-ylmethyl)phenyl]ethynyl}benzoyl)amino]propanediamide] | 119 | 2 (≈ 4.18 µM) | 0.5 (≈ 1.04 µM) | 0.5 (≈ 1.04 µM) | 4.2 | – | < 10 | –
10 | CNC(=O)[C@@](C)(C(=O)NO)N(C)C(=O)c1ccc(C#Cc2ccc(CN3CCCOCC3)cc2)cc1 [Compound 376, (2S)-N-hydroxy-N′,2-dimethyl-2-[methyl(4-{[4-(1,4-oxazepan-4-ylmethyl)phenyl]ethynyl}benzoyl)amino]propanediamide] | 129 | 1 (≈ 2.03 µM) | 0.25 (≈ 0.508 µM) | 0.5 (≈ 1.02 µM) | 2 | – | < 10 | –
11 | CNC(=O)C(C)(C(=O)NO)N(C)C(=O)c1ccc(C#Cc2coc(COC)c2)cc1 (centres unmarked) [Compound 528, N-hydroxy-2-{[(4-{[5-(methoxymethyl)furan-3-yl]ethynyl}phenyl)carbonyl](methyl)amino}-N′,2-dimethylpropanediamide] | 25 | 2 (≈ 4.84 µM) | 0.25 (≈ 0.605 µM) | 0.5 (≈ 1.21 µM) | 4.8 | – | – | < 10
12 | CNC(=O)[C@@](C)(C(=O)NO)N(C)C(=O)c1ccc(C#Cc2coc(COC)c2)cc1 [Compound 550, (2S)-N-hydroxy-2-{[(4-{[5-(methoxymethyl)furan-3-yl]ethynyl}phenyl)carbonyl](methyl)amino}-N′,2-dimethylpropanediamide] | 12 | 1 (≈ 2.42 µM) | 0.25 (≈ 0.605 µM) | 0.5 (≈ 1.21 µM) | 1.6 | – | – | < 10
13 | CNC(=O)[C@@](C)(C(=O)NO)N(C)C(=O)c1ccc(C#Cc2ccc(CCN3CCOCC3)cc2)cc1 [Compound 410, (2S)-N-hydroxy-N′,2-dimethyl-2-(methyl {[4-({4-[2-(morpholin-4-yl)ethyl]phenyl}ethynyl)phenyl]carbonyl}amino)propanediamide] | 78 | 1 (≈ 2.03 µM) | 0.25 (≈ 0.508 µM) | 1 (≈ 2.03 µM) | – | – | – | –
14 | CNC(=O)[C@@](C)(C(=O)NO)N(C)C(=O)c1ccc(-c2ccc3c(ccn3C)c2)cc1 [Compound 402, (2S)-N-hydroxy-N′,2-dimethyl-2-(methyl {[4-(1-methyl-1H-indol-5-yl)phenyl]carbonyl}amino)propanediamide] | 4.9 | 1 (≈ 2.45 µM) | 0.125 (≈ 0.306 µM) | 1 (≈ 2.45 µM) | – | – | – | –
15 | CNC(=O)C(C(=O)NO)N(C)C(=O)c1ccc(C#Cc2ccc(CNC3CC3)cc2)cc1 (centres unmarked) [Compound 301, 2-[{[4-({4-[(Cyclopropylamino)methyl]phenyl}ethynyl)phenyl]carbonyl}(methyl)amino]-n-hydroxy-n′-methylpropanediamide] | 100 | 4 (≈ 9.21 µM) | 1 (≈ 2.3 µM) | 1 (≈ 2.3 µM) | 6.1 | – | < 10 | –
16 | CNC(=O)C(C(=O)NO)N(C)C(=O)c1ccc(/C=C/C#Cc2ccc(CNC3CC3)cc2)cc1 (centres unmarked) [Compound 477, 2-[({4-[(1E)-4-{4-[(cyclopropylamino)methyl]phenyl}but-1-en-3-yn-1-yl]phenyl}carbonyl)(methyl)amino]-N-hydroxy-N′-methylpropanediamide] | 33 | 1 (≈ 2.17 µM) | 0.25 (≈ 0.543 µM) | 0.5 (≈ 1.09 µM) | 4.3 | – | < 10 | –
17 | CCOC1CN(Cc2ccc(C#Cc3ccc(C(=O)N(C)[C@@](C)(C(=O)NC)C(=O)NO)cc3)cc2)C1 [Compound 557, (2S)-2-[{[4-({4-[(3-ethoxyazetidin-1-yl)methyl]phenyl}ethynyl)phenyl]carbonyl}(methyl)amino]-N-hydroxy-N′,2-dimethylpropanediamide] | 108 | 1 (≈ 2.03 µM) | 0.25 (≈ 0.508 µM) | 0.5 (≈ 1.02 µM) | 2.3 | < 10 | – | –
18 | CNC(=O)[C@@](C)(C(=O)NO)N(C)C(=O)c1ccc(C#Cc2ccc(CN3CC(C)(OC)C3)cc2)cc1 [Compound 558, (2S)-N-hydroxy-2-[{[4-({4-[(3-methoxy-3-methylazetidin-1-yl)methyl]phenyl}ethynyl)phenyl]carbonyl}(methyl)amino]-N′,2-dimethylpropanediamide] | 235 | 2 (≈ 4.06 µM) | 0.5 (≈ 1.02 µM) | 1 (≈ 2.03 µM) | – | – | – | –
19 | CNC(=O)[C@@](C)(C(=O)NO)N(C)C(=O)c1ccc(C#Cc2ccc(CNC3COC3)cc2)cc1 [Compound 396, (2S)-N-hydroxy-N′,2-dimethyl-2-(methyl{[4-({4-[(oxetan-3-ylamino)methyl]phenyl}ethynyl)phenyl]carbonyl}amino)propanediamide] | 46 | 2 (≈ 4.31 µM) | 0.5 (≈ 1.08 µM) | 2 (≈ 4.31 µM) | 3.1 | – | < 10 | –
20 | CNC(=O)C(C(=O)NO)N(C)C(=O)c1ccc(C#CC#CC2CC2)cc1 (centres unmarked) [Compound 507, 2-({[4-(4-Cyclopropylbuta-1,3-diyn-1-yl)phenyl]carbonyl}(methyl)amino)-N-hydroxy-N′-methylpropanediamide] | 12 | 1 (≈ 2.83 µM) | 0.125 (≈ 0.354 µM) | 0.25 (≈ 0.707 µM) | – | – | – | –
